One compound from ChEMBL document CHEMBL5260858, “Targeting mycobacterial membranes and membrane proteins: Progress and limitations” (Bioorg Med Chem, 2023) can be followed below.

The test deals with Mycobacterium tuberculosis. Kind of test: Antitubercular activity against Mycobacterium africanum ATCC 25420 assessed as bacterial growth inhibition by agar dilution method. The test is classed as functional. The conditions noted are these: variant africanum ATCC 25420.

Converted amounts (≈) assume the structure as drawn.

Turning to `O=C1CCc2c(cccc2OC[C@]2(O)CCN(c3c(F)cc(Cl)cc3F)C[C@H]2O)N1`, the MIC worked out at 2 ng/mL (≈ 4.56 nM).
